pIC50: −log10 of the molar value. Counter-ions that a name gives are not always drawn.
Biological target: syk kinase (Homo sapiens, UniProt P43405)
Assay: syk kinase peptide phosphorylation scintillation proximity assay (SPA)
Assay type: biochemical
Details: biotin-EDPDYEWPSA substrate, 33P-ATP, SPA beads, room temperature 30 minutes; read-out: IC50 (concentration at which 50% inhibition of syk kinase phosphorylation occurs)
Text: Compounds of formula I in free or salt form are useful as pharmaceuticals. Accordingly the invention also provides a compound of formula I in free or pharmaceutically acceptable salt form for use as a pharmaceutical. The compounds of formula I in free or pharmaceutically acceptable salt form, hereinafter referred to alternatively as “agents of the invention”, inhibit the activity of the tyrosine protein kinase syk, which is an activator of pro-inflammatory cells driving an allergic response.
In this assay the effect of an agent of the invention on the phosphorylation of a peptide by syk kinase is determined. The phosphate is transferred from the terminal phosphate of adenosine triphosphate (ATP) to the biotin-modified peptide biotin-EDPDYEWPSA (available from Genosys) which is a known specific substrate for syk. When ^33P-phosphorylated peptide binds to streptavidin-polyvinyltoluene (PVT) Scintillation Proximity Assay (SPA) beads (available from Amersham), the emitted β-particles excite the fluorophore in the beads and produce light.
To the wells of an Optiplate (Canberra Packard) are added (i) the compound under test in DMSO/distilled water (10 μl), (ii) 20 μl of a composition formed by mixing 1 mM biotin-EDPDYEWPSA (5.5 μl), 300 μM ATP (18.3 μl), and ^33P-ATP in sufficient amount to add 0.1 μCi ^33P-ATP per well (1.1 μl on the day of production) and making up the volume to 2.2 ml with a buffer (Buffer A) prepared by dissolving tris-base (0.36 g) in distilled water (80 ml), adjusting the pH to 7.5 with 1M hydrochloric acid, adding 1M aqueous MgCl2 (1.5 ml), 50 mM aqueous sodium orthovanadate (30 μl) and 1M aqueous dithiothrietol (150 μl), and making the volume up to 120 ml with distilled water, (iii) 0.5% w/v syk kinase in Buffer A (20 μl). The plate is incubated at room temperature for 30 minutes with shaking, the reaction is then terminated by addition to all wells of 150 μl of a mixture prepared by reconstituting 500 mg Streptavidin-PVT SPA beads in 373 ml of Tris-buffered saline containing 673.6 g cesium chloride, 20 ml 0.5M EDTA and 27.5 mg ATP (disodium salt) per litre. The plate is again incubated at room temperature for 30 minutes with shaking, then sealed using Top Seal-S (Canberra Packard) according to the manufacturer's instructions and left to stand at room temperature for 1 hour. The resulting scintillations are counted using a Packard TopCount, each well being counted for 1 minute.
The procedure is repeated for different concentrations of test compound selected to cover the range of 0% to 100% inhibition and the concentration at which 50% inhibition of syk kinase phosphorylation occurs (IC50) for each compound is determined from concentration-inhibition curves in a conventional manner.

Compound | pIC50
CC(C)(C)OC(=O)Nc1ccc(Nc2nc(NC3CC3)c3nc[nH]c3n2)cc1 [Example 3] | 8.30
CN1CCN(c2ccc(Nc3nc(NC4CC4)c4nc[nH]c4n3)cc2)CC1 [Example 102] | 8.30
CC(=O)N1CCN(c2ccc(Nc3nc(NC4CC4)c4nc[nH]c4n3)cc2)CC1 [Example 103] | 8.70
CCN(C(C)=O)c1ccc(Nc2nc(NC(C)C)c3nc[nH]c3n2)cc1 [Example 170] | 8.00

Results, then the compound that gave them:

pIC50 | Compound
7.85 | CC(=O)N(C)c1ccc(Nc2nc(NC(C)(C)C)c3nc[nH]c3n2)cc1 [Example 138]
8.00 | CC(=O)N(C)c1ccc(Nc2nc(NC3CCC3)c3nc[nH]c3n2)cc1 [Example 6]
8.05 | c1nc2c(NC3CC3)nc(Nc3ccc(N4CCOCC4)cc3)nc2[nH]1 [Example 5]
8.44 | CC(=O)N1CCN(c2ccc(Nc3nc(NC4CCC4)c4nc[nH]c4n3)cc2)CC1 [Example 104]

System: not given
Assay: not given
Details: not given

Compound | melting point [°C]
CC(=O)N(C)c1ccc(Nc2nc(NC3CCC3)c3nc[nH]c3n2)cc1 (as salt: HCl) [Example 6] | 314 to 318
c1ccc(Nc2nc(NC3CCC3)c3[nH]cnc3n2)cc1 [Example 121, 6-Cyclobutylamino-2-anilinopurine] | 312 to 314

More lines, now with the values ahead:

melting point [°C] | Compound
273 to 274 | CC(=O)N(C)c1ccc(Nc2nc(NC(C)(C)C)c3nc[nH]c3n2)cc1 [Example 138]
201.9 to 203.7 | c1nc2c(NC3CC3)nc(Nc3ccc(N4CCOCC4)cc3)nc2[nH]1 [Example 5]
